We go through 1 compound from US20050130232A1, “Methods of screening for compounds that modulate hormone receptor activity” (Allergan, Inc., priority 2001, published 2005).

Test [1] concerns the target T1, RXR-associated protein kinase in Flag-RXR immunocomplexes (Homo sapiens, UniProt P19793).
T1 construct: expressed in transfected cells; host or cells: HEK 293
T1 sequence (P19793 1-462): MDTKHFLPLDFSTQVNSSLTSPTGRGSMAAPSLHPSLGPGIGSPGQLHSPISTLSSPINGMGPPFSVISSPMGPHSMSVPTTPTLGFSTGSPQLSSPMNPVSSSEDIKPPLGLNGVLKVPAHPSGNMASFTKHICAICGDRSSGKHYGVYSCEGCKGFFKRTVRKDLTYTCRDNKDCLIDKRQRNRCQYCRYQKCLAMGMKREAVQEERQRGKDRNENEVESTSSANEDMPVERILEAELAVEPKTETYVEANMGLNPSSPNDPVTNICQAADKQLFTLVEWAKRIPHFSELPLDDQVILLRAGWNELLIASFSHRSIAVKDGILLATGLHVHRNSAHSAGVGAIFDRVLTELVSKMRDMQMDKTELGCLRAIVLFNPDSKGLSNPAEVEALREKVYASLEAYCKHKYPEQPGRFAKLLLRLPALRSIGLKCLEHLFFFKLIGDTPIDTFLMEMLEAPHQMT
In words: In vitro kinase reaction with [γ-32P]ATP on Flag-RXR immunocomplexes from transfected HEK 293 cells. The format is cell-based. The following applies: transfected HEK 293 cells treated with ligand before anti-Flag immunoprecipitation. From the text:
(§1) Total cell lysates were immunoprecipitated with anti-Flag antibody (M2). Aliquots of the immunocomplexes were used for the in vitro kinase reaction with [γ-^32P]ATP and separated on SDS-PAGE. Phosphorylated proteins were detected by autoradiography (top panel). Additional aliquots of the immunocomplexes were subjected to immunoblotting with polyclonal anti-RXR antisera (D20; bottom panel). (B) Phosphoamino acid analysis. Flag-RXR and the 160-kDa protein were phosphorylated in vitro and separated on SDS-PAGE as described above, then transferred onto PVDF membrane, detected by autoradiography, and cut out for hydrolysis with acid (6 N HCl). The phosphorylated amino acids and standards (P-Ser, P-Thr, and P-Tyr) were separated by thin-layer chromatography. Positions of the standards P-Ser, P-Thr, and P-Tyr were visualized by ninhydrin staining and are indicated by arrows. (C) In vivo metabolic labeling of transfected HEK 293 cells. […] Cells were washed with phosphate-free medium and starved for 90 minutes before incubation with [^32P]orthophosphate for another 4 hours. […] Total cell lysates were immunoprecipitated with anti-Flag antibody (M2) and subjected to separation on SDS-PAGE. Phosphorylated proteins were detected by autoradiography.
(§2) Total cell lysates were subjected to immunoprecipitation, and the in vitro kinase reaction performed as described above.
(§3) Cell lysis, immunoprecipitation with anti-Flag (M2), in vitro kinase assay, and detection of the phosphorylated proteins in the RXRα immunoprecipitated complexes were performed as described above.
(§4) Cell culture and transient transfection was performed as follows. HEK 293 cells were grown in Dulbecco's modified Eagle's medium (DMEM) supplemented with 10% fetal bovine serum (FBS), 100U of penicillin per ml and 10 μg of streptomycion per ml at 37° C. in 5% CO2. For expression of RXR protein, 100-mm dishes of cells were transfected at 50% confluence with 2 μg of plasmid DNA using Lipofectamine (Life Technologies) as specified by the manufacturer. At 32 hours post-transfection, cells were starved by incubating in DMEM medium with 2.5% charcoal-treated fetal bovine serum or 0.1-0.5% calf bovine serum overnight, and then treated with indicated agents. Cells were harvested by aspirating medium, rinsing in phosphate buffered saline (PBS), and extracting into Lysis Buffer (30 mM Tris-HCL, pH 7.4, 0.5% Nonidet P-40, 10% glycerol, 150 mM NaCl, 1 mM EDTA, 40 mM NaF, 1 mM sodium orthovanadate, and 0.5 mM phenylmethylsufonyl fluoride, and 1× protease inhibitors, (Roche Diagnostics) or 1×SDS Sample Buffer.
(§5) Immunoprecipitation was performed essentially as follows. Cells were solubilized in cold Lysis Buffer and subsequently clarified by centrifugation at 20,000 g for 10 minutes at 4° C. Immunoprecipitations were performed at 4° C. by incubating clarified cell extracts with the indicated antibodies (2 μg/ml) and protein A/G-agarose beads (1:30 dilution of a 50% suspension) on a rotating wheel for 4 hours to overnight. Agarose beads were pelleted by low speed centrifugation and washed extensively with ice-cold Lysis Buffer.
(§6) Protein kinase assays were performed as follows. Immunoprecipitated complexes were resuspended in 15 μl of Kinase Assay Buffer (30 mM Tris-HCl, pH 7.4 and 10 mM MgCl2). Kinase reactions were initiated by addition of 2.5 μl of 50 μM [γ-^32P]ATP (10 μCi) to the immune-complexes, followed by incubation at 25° C. with occasional shaking for 20 minutes, and terminated by addition of 6 μl 4×SDS Sample Buffer. After heating at 100° C. for 5 minutes, the reaction mixtures were resolved by 4-12% SDS-PAGE. Incorporation of ^32P into RXR or other proteins was determined by autoradiography.

The subject of test [2] is RXR-associated protein kinase in Flag-RXR immunocomplexes. The test is described as above. The format is cell-based, human.
Description: as §1, §2, §3, §4, §5, §6

The target of test [3] is association between RXRα and PKA (Homo sapiens, UniProt P19793). In words: Co-immunoprecipitation of RXRα and catalytic subunit of PKA. Conditions: cells overexpressing PKA catalytic subunit, 10^-7 M. The format is cell-based.
Description: Left panel: Cells were immunoprecipitated with anti-FLAG antibody, and the immunoprecipitates analyzed by SDS-PAGE and blotting with anti-PKA antibody. Right panel: Cells were immunoprecipitated with anti-PKA antibody, and the immunoprecipitates analyzed by SDS-PAGE and blotting with anti-FLAG antibody. […] PKA I and PKC I indicate inhibitors of PKA and PKC, respectively.
Immunoprecipitations with anti-Flag antibody were performed as described above. Immunoprecipitations with anti-PKA antibody (Transduction Laboratories; Lexington, Kentucky) were performed according to manufacturer's protocol. Western blotting with anti-PKA antibody and anti-Flag antibody also were performed according to manufacturer's protocol.
Test [4] deals with protein kinase A activity associated with endogenous RXRα (Mus musculus, UniProt P28700). Conditions: 3T3-L1 adipocytes, 10^-7 M, vs vehicle-treated cells. As to the method: Kinase activity was determined in the immunoprecipitate using kemptide (LRRASLG; SEQ ID NO: 59) as a substrate. Samples 1,3: 0.1% DMSO (10 minutes).
protein kinase A activity associated with endogenous RXRα, sequence (P28700 whole entry): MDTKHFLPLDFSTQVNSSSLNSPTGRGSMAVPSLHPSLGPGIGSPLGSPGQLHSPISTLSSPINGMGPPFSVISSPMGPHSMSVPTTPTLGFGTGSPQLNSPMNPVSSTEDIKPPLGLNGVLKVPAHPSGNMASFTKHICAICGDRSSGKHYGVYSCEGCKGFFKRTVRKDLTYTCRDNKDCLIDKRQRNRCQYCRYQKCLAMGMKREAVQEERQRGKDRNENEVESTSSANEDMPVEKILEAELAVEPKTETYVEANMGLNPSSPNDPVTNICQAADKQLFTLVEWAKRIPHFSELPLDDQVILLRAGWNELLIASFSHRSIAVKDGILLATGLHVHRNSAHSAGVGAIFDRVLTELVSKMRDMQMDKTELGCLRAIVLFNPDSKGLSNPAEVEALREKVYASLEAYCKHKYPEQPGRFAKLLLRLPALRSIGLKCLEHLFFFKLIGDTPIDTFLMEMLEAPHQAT
Kinase activity in the immunoprecipitates was determined as described above using γ-ATP and synthetic peptide SEQ ID NO: 59.

For test [5], the system named is MAP kinase (MAPK or ERK1/2). In words: MAP kinase phosphorylation in cells treated with RXR agonist (anti-phospho-MAPK immunoblot). The format is cell-based. The procedure:
Cells were lysed directly with 1×SDS sample buffer and the cell lysates were separated by SDS-PAGE and immunoblotted with anti-phospho-MAPK. […] Differentiated 3T3 adipocytes were starved, stimulated, and manipulated as described above. […] Detection of MAP kinase phosphorylation was performed as described above with anti-phospho-MAPK from Promega.
MAP kinase (MAPK or ERK1/2) is activated by phosphorylation on Thr and Tyr residues of a TEY motif by the dual-specific MAP kinase kinase (MEK). […] As further shown in FIG. 3C, the response was dose-dependent (0.01-100 nM), with maximal stimulation at 0.1 nM.

As to `CC(/C=C/[C@@H]1C[C@]1(C)c1ccc2c(c1)C(C)(C)CCC2(C)C)=C\C(=O)O` [AGN194204], the “phosphorylation of RXR and 160 kDa protein in Flag-RXR immunocomplexes” value in test [1] was “contained a kinase phosphorylated RXR and a 160 kDa protein”. The “recruitment of kinase activity to the immunocomplex” value in test [2] (AF-2 region deleted from RXRα) is given as “kinase activity was not recruited”; in test [2] (RXRα deletion mutants containing an intact E region) it was “recruited kinase activity”. For the same compound, the “amount of protein kinase A associated with RXRα” value in test [3] is given as “did not increase the amount of protein kinase A associated with receptor”. Besides, in test [4], the “PKA activity associated with endogenous RXRα” value is reported as “increased about two-fold”. In test [5], the “duration of increased MAP kinase phosphorylation” value is “about 20 minutes”. In addition, the “phosphorylation of MAP kinase” value in test [5] (3T3-L1 fibroblasts) and in test [5] (differentiated 3T3 adipocytes) was “increased phosphorylation of MAP kinase” throughout. In addition, the “concentration of maximal stimulation of MAP kinase phosphorylation” value in test [5] (3T3-L1 fibroblasts, 5 minutes) is 0.1 nM. Moreover, the “dose-dependent range of MAP kinase response” value in test [5] (3T3-L1 fibroblasts, 5 minutes) lay in the range of 10 to 100000 pM. The “time to increased MAP kinase phosphorylation” value in test [5] (after treatment) was ≤ 5 min.
